Experimental data as given in patent publication US4285949A, “Vincamine derivatives, their preparation and therapeutical use” (Omnichem Societe Anonyme, priority 1978, dated 1981).

What was measured:
[1] = tested on: mice; assay: Hypobaric anoxia test on mice; format: in vivo, mice (Charles River stock); conditions: intragastric, 15 minutes before; for Survival time: 190 mm Hg (5.25% oxygen), control 39 (±2); for Survival time Variation %: 190 mm Hg, increase vs control animals
Method: Charles River stock mice of the same sex, weighing about 20±2 g are shared into three lots of 10 animals each. The lots 1 and 2 comprise treated animals, i.e. those having received either a substance to be tested or vincamine, together with solvent, at 1 ml/100 g of body weight. The third lot comprises control animals i.e. those having only received solvent at 1 ml/100 g of body weight.
The compounds examined are administered by intragastric route 15 minutes before the experiment.
The animals are placed in an atmosphere impoverished in oxygen by creating a partial vacuum (190 mm Hg, corresponding to 5.25% oxygen), in about 30 seconds.
The survival time of the mice is measured with a chronometer. Said time is increased by the agents capable of enhancing oxygenation of tissues and more particularly brain oxygenation. The percentages of survival time increase with respect to the values obtained for the control animals are calculated.
The doses were selected to obtain a 50-70% increase of the survival time of the animals under the experimental conditions.

[2] = Acute toxicity, LD50 by intravenous route in mice (Lichtfield and Wilcoxon); conditions: mouse, in vivo
Method: The compounds of the invention as well as vincamine were administered by intravenous route to Charles River stock mice. The 50% lethal doses (LD50) where determined graphically according to the method of Lichtfield and Wilcoxon (J. Pharmacol. Exp. Therap. […], 96, 99).

Structure (SMILES)	Survival time ([1]; 200 mg/kg)	Survival time Variation % ([1]; 200 mg/kg)	LD50 ([2]; mice, intravenous) [mg/kg]	Survival time ([1]; 30 mg/kg)	Survival time Variation % ([1]; 30 mg/kg)	LD50 ([2]; iv) [mg/kg]	Survival time ([1]; 20 mg/kg)	Survival time Variation % ([1]; 20 mg/kg)
CC[C@]12CCCN3CCc4c(n(c5ccccc45)[C@@](O)(C(=O)OC)C1)[C@@H]32 [Vincamine]	58 (±4)	+49%	47	–	–	–	–	–
CC[C@]12C=CCN3CCc4c(n(c5ccc(Cl)cc45)[C@](O)(C(=O)OC)C1)[C@@H]32 [OC-231 E, 10-Chloro-16-epiΔ14-vincamine]	–	–	–	62 (±6)	+55%	47	–	–
CC[C@]12C=CCN3CCc4c(n(c5ccc(Cl)cc45)C(C(=O)OC)=C1)[C@@H]32 [OC-233, 10-Chloro-apo-Δ14-vincamine]	–	–	–	–	–	52	57 (±4)	+46%
CC[C@]12C=CCN3CCc4c(n(c5ccc(Cl)cc45)[C@@](O)(C(=O)OC)C1)[C@@H]32 [OC-231 N, 10-Chloro-Δ14-vincamine]	–	–	–	60 (±1)	+53%	47	–	–
